Assay results as given in patent publication US20260250250A1, “3-(SULPHONYL OR SULFONIMIDOYL)PROP-2-EN-1-YL]-2-OXO-1,2-DIHYDROPYRIDINE-3-CARBOXAMIDE DERIVATIVES” (Flinder Therapeutics B.V., priority 2022, published 2026).

Assays:
[1] = tested on: bladder carcinoma RT4 cell line; assay: TNF-α-induced cytotoxicity assay (CellTiter-Glo viability); type: cell-based; conditions: Homo sapiens, RT-4, 72 h
Procedure, shortened: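 RT4 bladder carcinoma cells, 1000 per well, stimulated with 1.25 ng/mL TNFα together with compound for 72 h at 37° C., 5% CO2. Viability read by CellTiter-Glo luminescence, proportional to cellular ATP, as a measure of HOIP-dependent cytotoxicity.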

[2] = tested on: NF-κB signaling pathway; assay: Cell-based dual luciferase NF-κB reporter assay (HEK293 cells, TNF stimulated); conditions: Homo sapiens, HEK293
Procedure, shortened: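 HEK293 cells transfected with Firefly luciferase and NF-κB-response-element NanoLuc plasmids; compounds at 100–0.005 µM in 1% DMSO. Cells stimulated with 2.5 ng/mL TNF 30 min after compound addition. Firefly and NanoLuc activities read after 6 h by Nano-Glo dual-luciferase detection.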

[3] = target: T1, human E3 ubiquitin-protein ligase RNF31 (HOIP) (Homo sapiens, UniProt Q96EP0); assay: Cell-free HTRF-based HOIP inhibition assay; type: biochemical
T1 sequence (Q96EP0 695-1072 limits assumed): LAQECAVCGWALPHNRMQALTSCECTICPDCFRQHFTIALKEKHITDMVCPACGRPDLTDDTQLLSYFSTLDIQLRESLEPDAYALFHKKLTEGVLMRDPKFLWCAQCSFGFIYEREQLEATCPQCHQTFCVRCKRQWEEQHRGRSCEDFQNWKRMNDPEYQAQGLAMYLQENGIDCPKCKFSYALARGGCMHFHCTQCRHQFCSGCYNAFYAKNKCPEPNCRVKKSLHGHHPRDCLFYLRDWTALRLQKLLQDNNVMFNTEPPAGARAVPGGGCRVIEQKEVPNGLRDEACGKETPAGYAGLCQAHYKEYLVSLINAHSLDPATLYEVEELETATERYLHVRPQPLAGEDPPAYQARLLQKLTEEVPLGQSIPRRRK
Procedure, shortened: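 HTRF read (ex 337 nm; em 665 and 620 nm) after a 2.5 h, 25° C. ubiquitination step started by adding E2 plus substrates. Before that, E. coli-expressed human HOIP fragment and E1 were incubated 1 h at 25° C. with compound at 100-0.005 μM, 1% DMSO final.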

Structure (SMILES)	IC50 [1]	IC50 [2]	IC50 [3]
COc1ccc(S(=N)(=O)/C=C/CNC(=O)c2cc3c([nH]c2=O)CCN(C(=O)OC(C)(C)C)C3)cc1F (stereo not drawn) [Example 152, tert-butyl 3-{[(2E)-3-[(3-fluoro-4-methoxyphenyl)(imino)oxo-λ^6-sulfanyl]prop-2-en-1-yl]carbamoyl}-2-oxo-1,2,5,6,7,8-hexahydro-1,6-naphthyridine-6-carboxylate]	≤ 10000 nM	≤ 10000 nM	≤ 100 nM
O=C(NC/C=C/S(=O)(=O)c1ccccc1)c1cc2c([nH]c1=O)CCN(C(=O)OC1COC1)C2 [Example 67, oxetan-3-yl 3-{[(2E)-3-(benzenesulfonyl)prop-2-en-1-yl]carbamoyl}-2-oxo-1,2,5,6,7,8-hexahydro-1,6-naphthyridine-6-carboxylate]	≤ 100000 nM	≤ 10000 nM	≤ 1000 nM
N=S(=O)(/C=C/CNC(=O)c1cc2c([nH]c1=O)CCC(F)(F)C2)c1ccc(F)cc1 (stereo not drawn) [Example 59, 6,6-difluoro-N-[(2E)-3-[(4-fluorophenyl)(imino)oxo-λ^6-sulfanyl]prop-2-en-1-yl]-2-oxo-1,2,5,6,7,8-hexahydroquinoline-3-carboxamide]	≤ 1000 nM	≤ 10000 nM	≤ 1000 nM
N=S(=O)(/C=C/CNC(=O)c1cc2c([nH]c1=O)CCN(C(=O)OCC1CC1)C2)c1ccc(F)cc1 (stereo not drawn) [Example 68, cyclopropylmethyl 3-{[(2E)-3-[(4-fluorophenyl)(imino)oxo-A*-sulfanyl]prop-2-en-1-yl]carbamoyl}-2-oxo-1,2,5,6,7,8-hexahydro-1,6-naphthyridine-6-carboxylate]	≤ 10000 nM	≤ 10000 nM	≤ 100 nM
N#Cc1ccc(S(=O)(=O)/C=C/CNC(=O)c2cc3c([nH]c2=O)CCCC3)cc1 [Example 56, N-[(2E)-3-(4-cyanobenzenesulfonyl)prop-2-en-1-yl]-2-oxo-1,2,5,6,7,8-hexahydroquinoline-3-carboxamide]	≤ 1000 nM	≤ 100 nM	≤ 100 nM
O=C(NC/C=C/S(=O)(=O)c1ccccc1)c1cc2c([nH]c1=O)CCN(C(=O)C13CCC(CC1)C3)C2 [Example 110, N-[(2E)-3-(benzenesulfonyl)prop-2-en-1-yl]-6-{bicyclo[2.2.1]heptane-1-carbonyl}-2-oxo-1,2,5,6,7,8-hexahydro-1,6-naphthyridine-3-carboxamide]	≤ 10000 nM	≤ 10000 nM	≤ 1000 nM
CC(C)(C)CC(=O)N1CCc2[nH]c(=O)c(C(=O)NC/C=C/S(=O)(=O)c3ccccc3)cc2C1 [Example 120, N-[(2E)-3-(benzenesulfonyl)prop-2-en-1-yl]-6-(3,3-dimethylbutanoyl)-2-oxo-1,2,5,6,7,8-hexahydro-1,6-naphthyridine-3-carboxamide]	≤ 10000 nM	≤ 10000 nM	≤ 1000 nM
COc1ccc(S(=O)(=O)/C=C/CNC(=O)c2cc3c([nH]c2=O)CCCC3)cc1F [Example 19, N-[(2E)-3-(3-fluoro-4-methoxybenzenesulfonyl)prop-2-en-1-yl]-2-oxo-1,2,5,6,7,8-hexahydroquinoline-3-carboxamide]	≤ 1000 nM	≤ 1000 nM	≤ 100 nM
CC(OC(=O)N1CCc2[nH]c(=O)c(C(=O)NC/C=C/S(=O)(=O)c3ccccc3)cc2C1)c1c(F)cccc1F (stereo not drawn) [Example 91, 1-(2,6-difluorophenyl)ethyl 3-{[(2E)-3-(benzenesulfonyl)prop-2-en-1-yl]carbamoyl}-2-oxo-1,2,5,6,7,8-hexahydro-1,6-naphthyridine-6-carboxylate]	≤ 1000 nM	≤ 1000 nM	≤ 1000 nM
CC1(C)CC1COC(=O)N1CCc2[nH]c(=O)c(C(=O)NC/C=C/S(=O)(=O)c3ccccc3)cc2C1 (stereo not drawn) [Example 73, (2,2-dimethylcyclopropyl)methyl 3-{[(2E)-3-(benzenesulfonyl)prop-2-en-1-yl]carbamoyl}-2-oxo-1,2,5,6,7,8-hexahydro-1,6-naphthyridine-6-carboxylate]	≤ 1000 nM	≤ 1000 nM	≤ 100 nM
CC(C)Oc1ccc(S(=N)(=O)/C=C/CNC(=O)c2cc3c([nH]c2=O)CCCC3)cc1 (stereo not drawn) [Example 138, N-[(2E)-3-[imino(oxo)[4-(propan-2-yloxy)phenyl]-λ^6-sulfanyl]prop-2-en-1-yl]-2-oxo-1,2,5,6,7,8-hexahydroquinoline-3-carboxamide]	≤ 1000 nM	≤ 1000 nM	≤ 1000 nM
N=S(=O)(/C=C/CNC(=O)c1cc2c([nH]c1=O)CCCC2)c1ccc(F)cc1F (stereo not drawn) [Example 135, N-[(2E)-3-[(2,4-difluorophenyl)(imino)oxo-λ^6-sulfanyl]prop-2-en-1-yl]-2-oxo-1,2,5,6,7,8-hexahydroquinoline-3-carboxamide]	≤ 10000 nM	≤ 1000 nM	≤ 1000 nM
Cc1ccc(S(=N)(=O)/C=C/CNC(=O)c2cc3c([nH]c2=O)CCCC3)cc1C (stereo not drawn) [Example 58, N-[(2E)-3-[(3,4-dimethylphenyl)(imino)oxo-λ^6-sulfanyl]prop-2-en-1-yl]-2-oxo-1,2,5,6,7,8-hexahydroquinoline-3-carboxamide]	≤ 1000 nM	≤ 1000 nM	≤ 100 nM
CC(OC(=O)N1CCc2[nH]c(=O)c(C(=O)NC/C=C/S(=O)(=O)c3ccccc3)cc2C1)C(F)(F)F (stereo not drawn) [Example 72, 1,1,1-trifluoropropan-2-yl 3-{[(2E)-3-(benzenesulfonyl)prop-2-en-1-yl]carbamoyl}-2-oxo-1,2,5,6,7,8-hexahydro-1,6-naphthyridine-6-carboxylate]	≤ 1000 nM	≤ 1000 nM	≤ 1000 nM
O=C(NC/C=C/S(=O)(=O)c1ccccc1)c1cc2c([nH]c1=O)CCN(C(=O)OCC1CC1(F)F)C2 (stereo not drawn) [Example 74, (2,2-difluorocyclopropyl)methyl 3-{[(2E)-3-(benzenesulfonyl)prop-2-en-1-yl]carbamoyl}-2-oxo-1,2,5,6,7,8-hexahydro-1,6-naphthyridine-6-carboxylate]	≤ 10000 nM	≤ 1000 nM	≤ 1000 nM
O=C(NC/C=C/S(=O)(=O)c1ccc(Cl)cc1)c1cc2c([nH]c1=O)CCN(C(=O)OCC(F)(F)F)C2 [Example 97, 2,2,2-trifluoroethyl 3-{[(2E)-3-(4-chlorobenzenesulfonyl)prop-2-en-1-yl]carbamoyl}-2-oxo-1,2,5,6,7,8-hexahydro-1,6-naphthyridine-6-carboxylate]	≤ 10000 nM	≤ 1000 nM	≤ 100 nM
O=C(NC/C=C/S(=O)(=O)c1ccc(F)cc1)c1cc2c([nH]c1=O)CCCCC2 [Example 35, N-[(2E)-3-(4-fluorobenzenesulfonyl)prop-2-en-1-yl]-2-oxo-1H,2H,5H,6H,7H,8H,9H-cyclohepta[b]pyridine-3-carboxamide]	≤ 10000 nM	≤ 1000 nM	≤ 1000 nM
CC(C)C1CCc2[nH]c(=O)c(C(=O)NC/C=C/S(=O)(=O)c3ccccc3)cc2C1 (stereo not drawn) [Example 46, N-[(2E)-3-(benzenesulfonyl)prop-2-en-1-yl]-2-oxo-6-(propan-2-yl)-1,2,5,6,7,8-hexahydroquinoline-3-carboxamide]	≤ 1000 nM	≤ 1000 nM	≤ 1000 nM
O=C(NC/C=C/S(=O)(=O)c1ccc(F)cc1Cl)c1cc(-c2ccccc2)c[nH]c1=O [Example 128, N-[(2E)-3-(2-chloro-4-fluorobenzenesulfonyl)prop-2-en-1-yl]-2-oxo-5-phenyl-1,2-dihydropyridine-3-carboxamide]	≤ 10000 nM	≤ 10000 nM	≤ 1000 nM
CC(C)(C)OC(=O)N1CCc2[nH]c(=O)c(C(=O)NC/C=C/S(=O)(=O)c3ccc(F)cc3)cc2C1 [Example 25, tert-butyl 3-{[(2E)-3-(4-fluorobenzenesulfonyl)prop-2-en-1-yl]carbamoyl}-2-oxo-1,2,5,6,7,8-hexahydro-1,6-naphthyridine-6-carboxylate]	≤ 10000 nM	≤ 1000 nM	≤ 100 nM
O=C(NC/C=C/S(=O)(=O)c1ccccc1)c1cc2c([nH]c1=O)CCN(C(=O)OC1CCCCC1)C2 [Example 90, cyclohexyl 3-{[(2E)-3-(benzenesulfonyl)prop-2-en-1-yl]carbamoyl}-2-oxo-1,2,5,6,7,8-hexahydro-1,6-naphthyridine-6-carboxylate]	≤ 1000 nM	≤ 1000 nM	≤ 100 nM
COc1ccc(S(=N)(=O)/C=C/CNC(=O)c2cc(-c3ccccc3)c[nH]c2=O)cc1F (stereo not drawn) [Example 149, N-[(2E)-3-[(3-fluoro-4-methoxyphenyl)(imino)oxo-λ^6-sulfanyl]prop-2-en-1-yl]-2-oxo-5-phenyl-1,2-dihydropyridine-3-carboxamide]	≤ 10000 nM	≤ 10000 nM	≤ 1000 nM
COc1ccc(S(=N)(=O)/C=C/CNC(=O)c2cc3c([nH]c2=O)CCCC3)cc1C (stereo not drawn) [Example 137, N-[(2E)-3-[imino(4-methoxy-3-methylphenyl)oxo-λ^6-sulfanyl]prop-2-en-1-yl]-2-oxo-1,2,5,6,7,8-hexahydroquinoline-3-carboxamide]	≤ 1000 nM	≤ 1000 nM	≤ 1000 nM
